Test results: US7638505B2, “Organophosphoric derivatives useful as anti-parasitic agents” (priority 2005, dated 2009)
Like-named read-outs stand apart in the source and are kept apart here. Values belong to the compound of their own block, whether it stands above or below them.

Key:
Plasmodium falciparum = conditions: cited from earlier work
[1] = system: Plasmodium falciparum strain Dd2; experiment: in vitro anti-malarial activity, [3H]hypoxanthine incorporation, strain Dd2; assay type: cell-based; conditions: for activity in the Dd2 cell line with respect to the reference compounds fosmidomycin and FR900098: same conditions, similar experimental setup
Experimental: (§1) The in vitro anti-malarial activity of some of the compounds prepared in example 1 was determined as follows. Intraerythrocytic stages of the Plasmodium falciparum strains 3D7 and Dd2 were respectively incubated with serial dilutions of the relevant compounds and the viability of the parasites was assessed by their ability to incorporate [^3H]hypoxanthine into DNA. Inhibition results were expressed as IC50.

[2] = system: Plasmodium falciparum strain 3D7; experiment: in vitro anti-malarial activity, [3H]hypoxanthine incorporation, strain 3D7; assay type: cell-based; conditions: P. falciparum strain 3D7, intraerythrocytic stages
Experimental: as §1

Plasmodium vinckei = conditions: cited from earlier work
[3] = system: Plasmodium falciparum strain Dd2; conditions: P. falciparum Dd2, WO 2005/048715; cited from earlier work
[4] = in vivo; cited from earlier work
[5] = system: acute, uncomplicated Plasmodium falciparum malaria; conditions: clinical trials, Gabon and Thailand; cited from earlier work
[6] = Plasmodium falciparum, DD2, read-out: IC50 (μM) Dd2

Structure (SMILES): CC(=O)N(O)CCCP(=O)(O)O [FR900098, reference compound]
activity relative to fosmidomycin against Plasmodium falciparum in vitro (Plasmodium falciparum): approximately twice more active than fosmidomycin
IC50 ([1]; P. falciparum strain Dd2, intraerythrocytic stages, read-out: IC50 (μM) Dd2): 0.18 µM
IC50 [2]: 0.32 µM
activity relative to fosmidomycin in Plasmodium vinckei mouse model (Plasmodium vinckei): approximately twice more active than fosmidomycin

Structure (SMILES): N#Cc1ccc(C(CCN(O)C=O)P(=O)(O)O)cc1 (centres unmarked) [Compound 105, 3-[N-formyl,N-(hydroxy)amino]-1-(4-cyanophenyl)-propylphosphonic acid]
activity in the Dd2 cell line with respect to the reference compounds fosmidomycin and FR900098 [1]: substantial higher activity

Structure (SMILES): COc1ccc(C(CCN(O)C=O)P(=O)(O)O)cc1 (centres unmarked) [Compound 1c, 3-(N-hydroxyformamido)-1-(4-methoxyphenyl)propylphosphonic acid]
IC50 [1, 6]: 0.2 µM
IC50 ([2]; Plasmodium falciparum): 0.36 µM

Structure (SMILES): CC(=O)N(O)CCC(c1ccc(Cl)cc1)P(=O)(O)O (centres unmarked) [Compound 2d, 3-(N-hydroxyacetamido)-1-(4-chlorophenyl)propylphosphonic acid]
IC50 [1, 6]: 0.095 µM
IC50 ([2]; Plasmodium falciparum): 0.35 µM

Structure (SMILES): CC(=O)N(O)CCC(c1ccccc1)P(=O)(O)O.OCCNCCO (stereo not drawn) [α-phenyl-FR900098 diethanolammonium salt]
IC50 value relative to FR900098 [3]: higher than FR900098

Structure (SMILES): O=CN(O)CCCP(=O)(O)O [fosmidomycin]
IC50 [1, 6]: 0.36 µM
IC50 ([2]; Plasmodium falciparum): 1.1 µM
plasma half-life [4]: short
resorption rate [4]: moderate
treatment of patients suffering from acute, uncomplicated Plasmodium falciparum malaria [5]: proved to be efficient

Structure (SMILES): CC(=O)N(O)CCC(c1ccc(Cl)c(Cl)c1)P(=O)(O)O (centres unmarked) [Compound 2e, 3-(N-hydroxyacetamido)-1-(3,4-dichlorophenyl)propylphosphonic acid]
IC50 [1, 6]: 0.09 µM
IC50 ([2]; Plasmodium falciparum): 0.25 µM

Structure (SMILES): O=CN(O)CCC(c1ccccc1)P(=O)(O)O.OCCNCCO (stereo not drawn) [α-phenyl-fosmidomycin diethanolammonium salt]
IC50 value relative to fosmidomycin (times less) [3]: 4.5 times

Structure (SMILES): CC(=O)N(O)CCC(c1ccc(C#N)cc1)P(=O)(O)O.N.N (centres unmarked) [Compound 104b, Bisammonium 3-[N-acetyl. N-(hydroxy)amino]-1-(4-cyanophenyl)-propylphosphonate]
activity in the Dd2 cell line with respect to the reference compounds fosmidomycin and FR900098 [1]: substantial higher activity

IC50 ([1]; Plasmodium falciparum, P. falciparum strain Dd2, intraerythrocytic stages, read-out: IC50 (μM) Dd2): 0.028 µM
IC50 ([2]; Plasmodium falciparum): 0.09 µM
Structure (SMILES): O=CN(O)CCC(c1ccc(Cl)c(Cl)c1)P(=O)(O)O (centres unmarked) [Compound 1e, 3-(N-hydroxyformamido)-1-(3,4-dichlorophenyl)propylphosphonic acid]
in vitro antimalarial activity relative to fosmidomycin ([1]; inhibition of parasite growth, strain not named in the sentence (table: Dd2 and 3D7)): twelve-fold more active than fosmidomycin
in vitro antimalarial activity relative to FR900098 ([1]; strain not named in the sentence (table: Dd2 and 3D7)): exceeds the activity of FR900098
